Patent publication US11117926B2, “Cholane derivatives for use in the treatment and/or prevention of FXR and TGR5/GPBAR1 mediated diseases” (BAR PHARMACEUTICALS S.R.L., priority 2014, dated 2021)
Structures can show the parent of a compound that is named as a salt.

Assays:
human GPBAR1 = target: T1, human GPBAR1 (Homo sapiens, UniProt Q8TDU6); assay: GPBAR1 mediated transactivation (CRE luciferase reporter) in transfected HEK-293T cells; type: cell-based; settings: each compound at 10 microM, transactivation activity of TLCA on CRE = 100%
T1 construct: expressed in transfected cells; host or cells: HEK-293T
T1 sequence (Q8TDU6 1-330): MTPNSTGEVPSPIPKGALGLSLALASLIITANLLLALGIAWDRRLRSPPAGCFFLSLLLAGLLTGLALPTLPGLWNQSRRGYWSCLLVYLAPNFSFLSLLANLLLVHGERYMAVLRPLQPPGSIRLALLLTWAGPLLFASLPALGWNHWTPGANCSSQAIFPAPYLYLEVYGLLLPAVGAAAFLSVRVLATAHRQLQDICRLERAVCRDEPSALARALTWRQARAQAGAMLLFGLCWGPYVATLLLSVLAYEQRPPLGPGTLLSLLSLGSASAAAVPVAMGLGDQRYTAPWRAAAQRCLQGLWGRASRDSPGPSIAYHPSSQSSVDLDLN
Description: (§1) Each compound was tested at the concentration of 10 microM and transactivation activity of CDCA on FXR and TLCA on CRE (i.e. TGR5/GPBAR1) was considered equal to 100%.
(§2) Biological Activities. Activity of selected compounds was tested in vitro using a whole cell model transfected with a reporter genes to establish selectivity of compounds shown in table 1 toward FXR and TGR5/GPBAR1 in comparison with chenodeoxycholic acid (CDCA) and TLCA. CDCA is a primary bile acid that functions as an endogenous ligand for FXR, while TLCA is a physiological ligand for TGR5/GPBAR1. In this assay, HepG2 cells (a liver-derived cell line) were cultured at 37° C. in minimum essential medium with Earl's salts containing 10% fetal bovine serum (FBS), 1% L-glutamine, and 1% penicillin/streptomycin. […] The transfection experiments were performed using Fugene HD according to manufactured specifications. Cells were plated in a 24-well plate at 5×10^4 cells/well. For FXR mediated transactivation, HepG2 cells were transfected with 100 ng of pSG5-FXR, 100 ng of pSG5-RXR, 100 ng of pGL4.70 a vector encoding the human Renilla gene and 250 ng of the reporter vector p(hsp27)-TK-LUC containing the FXR response element IR1 cloned from the promoter of heat shock protein 27 (hsp27).
(§3) At 24 h post-transfection, cells were stimulated for 18 h with 10 μM TLCA as a control agent or putative GPBAR1 agonists as the same concentration. After treatments, cells were lysed in 100 μL of lysis buffer (25 mM Tris-phosphate, pH 7.8; 2 mM DTT; 10% glycerol; 1% Triton X-100), and 20 μL of cellular lysate was assayed for luciferase activity using the luciferase assay system. Luminescence was measured using Glomax 20/20 luminometer. Luciferase activities were normalized against Renilla activities. Antagonism against FXR of GPBAR1/TGR5 was measured as percent of activity in transactivation assay suing activity of TLCA as example of agonism.

FXR = target: T2, FXR (Homo sapiens, UniProt Q96RI1); assay: FXR mediated transactivation (luciferase reporter) in transfected HepG2 cells; type: cell-based; settings: each compound at 10 microM, transactivation activity of CDCA on FXR = 100%
T2 construct: expressed in transfected cells; host or cells: HepG2
T2 sequence (Q96RI1 1-486): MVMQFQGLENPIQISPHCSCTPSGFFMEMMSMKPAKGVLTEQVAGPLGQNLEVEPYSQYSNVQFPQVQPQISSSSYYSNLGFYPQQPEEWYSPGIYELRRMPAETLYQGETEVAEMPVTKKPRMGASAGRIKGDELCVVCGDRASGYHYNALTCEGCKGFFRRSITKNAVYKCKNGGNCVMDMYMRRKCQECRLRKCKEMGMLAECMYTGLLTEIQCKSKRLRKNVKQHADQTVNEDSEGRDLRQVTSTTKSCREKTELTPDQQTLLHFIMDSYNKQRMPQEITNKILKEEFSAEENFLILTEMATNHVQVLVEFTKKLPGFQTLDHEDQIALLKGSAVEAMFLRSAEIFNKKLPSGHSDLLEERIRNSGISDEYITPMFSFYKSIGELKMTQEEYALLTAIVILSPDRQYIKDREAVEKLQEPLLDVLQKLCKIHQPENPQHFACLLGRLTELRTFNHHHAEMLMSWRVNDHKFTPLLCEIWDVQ
T2 sequence (P19793 1-462 partner): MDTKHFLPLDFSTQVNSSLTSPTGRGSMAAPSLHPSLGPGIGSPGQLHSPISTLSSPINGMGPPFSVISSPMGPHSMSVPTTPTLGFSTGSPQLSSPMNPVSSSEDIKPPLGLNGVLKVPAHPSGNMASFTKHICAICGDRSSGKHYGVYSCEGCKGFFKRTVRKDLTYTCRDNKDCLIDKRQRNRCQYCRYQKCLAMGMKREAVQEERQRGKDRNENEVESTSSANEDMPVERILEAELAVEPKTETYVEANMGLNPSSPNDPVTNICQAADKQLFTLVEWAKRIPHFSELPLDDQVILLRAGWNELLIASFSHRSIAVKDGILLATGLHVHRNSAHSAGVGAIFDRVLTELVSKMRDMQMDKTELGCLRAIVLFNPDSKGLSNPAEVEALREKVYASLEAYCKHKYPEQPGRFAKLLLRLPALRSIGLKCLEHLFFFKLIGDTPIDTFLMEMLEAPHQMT
Description: as §1, §2, §3

Row | Structure (SMILES) | GPBAR1 (% of activity in comparison to 10 μM TLCA) (human GPBAR1) | FXR (% of activity in comparison to 10 μM CDCA) (FXR)
1 | C[C@H](CCCCCO)[C@H]1CCC2C3C(CC[C@@]21C)[C@@]1(C)CC[C@@H](O)C[C@H]1C[C@@H]3O (stereo partly drawn) [BAR304, 25, 26-bishomo-5β-cholan-3α, 7β, 26-triol] | 55.1 ± 12.5% | 0%
2 | CC[C@@H]1[C@H](O)C2C3CC[C@H]([C@H](C)CCO)[C@@]3(C)CCC2[C@@]2(C)CC[C@@H](O)C[C@@H]12 (stereo partly drawn) [BARn501, 6β-ethyl-3α, 7β-dihydroxy-24-nor-5β-cholan-23-ol] | 83.1 ± 7.4% | 8.5 ± 1.4%
3 | CC[C@H]1[C@@H](O)[C@@H]2[C@H](CC[C@]3(C)[C@@H]([C@H](C)CCC(=O)O)CC[C@@H]23)[C@@]2(C)CCCC[C@@H]12 [BAR704, 6α-ethyl-7α-hydroxy-5β-cholan-24-oic acid] | 27.9 ± 6.3% | 220.5 ± 37.5%
4 | CC[C@@H]1[C@H](O)[C@@H]2[C@H](CC[C@]3(C)[C@@H]([C@H](C)CCCO)CC[C@@H]23)[C@@]2(C)CC[C@H](O)C[C@@H]12 [BAR708, 6β-ethyl-3β,7β-dihydroxy-5β-cholan-24-ol] | 57.6 ± 4.6% | 6.4 ± 0.8%
5 | CC[C@H]1[C@@H](O)C2C3CC[C@H]([C@H](C)CC(=O)O)[C@@]3(C)CCC2[C@@]2(C)CC[C@H](O)C[C@@H]12 (stereo partly drawn) [BARn710, 6α-ethyl-3β,7α-dihydroxy-24-nor-5β-cholan-23-oic acid] | 75 ± 8.0% | 142 ± 1.0%
6 | CC[C@@H]1[C@@H](O)[C@@H]2[C@H](CC[C@]3(C)[C@@H]([C@H](C)CCCO)CC[C@@H]23)[C@@]2(C)CC[C@@H](O)C[C@@H]12 [BAR504-6b, 6β-ethyl-3α,7α-dihydroxy-5β-cholan-24-ol] | 75.3 ± 3.4% | 32.4 ± 14.1%
7 | CC=C1[C@H](O)[C@@H]2[C@H](CC[C@]3(C)[C@@H]([C@H](C)CCCO)CC[C@@H]23)[C@@]2(C)CC[C@@H](O)C[C@@H]12 [BAR503, 6-ethylidene-3α,7β-dihydroxy-5β-cholan-24-ol] | 59.8 ± 0.1% | 68.8 ± 26.6%
8 | CC[C@H]1[C@@H](O)[C@@H]2[C@H](CC[C@]3(C)[C@@H]([C@H](C)CCCOS(=O)(=O)[O-])CC[C@@H]23)[C@@]2(C)CCCC[C@@H]12.[Na+] [BAR701solf, 6α-ethyl-7α-hydroxy-5β-cholan-24-yl 24-sodium sulfate] | 63.5 ± 0.5% | 229 ± 2.0%
9 | CC[C@@H]1[C@@H](O)[C@@H]2[C@H](CC[C@]3(C)[C@@H]([C@H](C)CCCO)CC[C@@H]23)[C@@]2(C)CCCC[C@@H]12 [BAR705, 6β-ethyl-7α-hydroxy-5β-cholan-24-ol] | 67.0 ± 9.9% | 43.7 ± 3.9%
10 | CC[C@H]1[C@@H](O)C2C3CC[C@H]([C@H](C)CCCCCOS(=O)(=O)O)[C@@]3(C)CCC2[C@@]2(C)CC[C@@H](O)C[C@@H]12 (stereo partly drawn) [BAR804, 6α-ethyl-3α, 7α-dihydroxy-25, 26-bishomo-5β-cholan-26-yl-26-sodium sulfate] | 52.5 ± 3.5% | 196.5 ± 6.5%
